This note sets out measurements from patent EP2998294A1, “Naphthyl sulfonamide phenyl derivatives as KEAP-1 modulators for the treatment of diabetes, obesity, dyslipidemia and related disorders” (SANOFI, priority 2014, dated 2016).

This test has as its target T1, human Keap1 kelch domain (amino acids Ala321-Thr609) (Homo sapiens, UniProt Q14145).
T1 construct: human Keap1 kelch domain (amino acids Ala321-Thr609)
The test can be described thus: Keap1-Nrf2 peptide binding assay (fluorescence polarisation). The procedure: A fluorescence polarisation assay was used to measure binding of the human Keap1 kelch domain (amino acids Ala321-Thr609) to a fluorescently labeled peptide containing a Keap1 binding site of human Nrf2 (Alexa633-AFFAQLQLDEETGEFL; JPT Technologies, Berlin, Germany). Two microliters of test compound in reaction buffer (phosphate-buffered saline, 2 mM DL-dithiothreitol, 0.015 % (v/v) Brij-35) containing 6 % (v/v) DMSO were mixed with two microliters of the Keap1 kelch domain in reaction buffer in a black 384-well small volume microtiter plate and incubated at ambient temperature for 15 minutes. Thereafter, two microliters were added of the fluorescently labeled Nrf2 peptide in reaction buffer, and the mixture was incubated for a further 30 minutes at ambient temperature. Final concentrations of the Keap1 kelch domain and the fluorescently labeled Nrf2 peptide were 20 nM and 50 nM, respectively.
Fluorescence polarization (FP) was measured at excitation and emission wavelengths of 635 nm and 660 nm, respectively. Positive controls for binding (two microliters of reaction buffer containing 6 % (v/v) DMSO instead of test compound in the same buffer) and negative controls (as positive controls, but without Keap1 kelch domain) were included on each microtiter plate. Data were expressed as percent-inhibition values: percentinhibition = 100⋅(1-(|FPcompound-FPnegative controle|)/(|FPpositive controle-FPnegative controle|)) [formula]
IC50 values were determined by testing different compound concentrations and fitting the resulting percent-inhibition values to the following equation using XLFit4: percentinhibition = A + (B-A)/(1 + (((IC50)/([Compound])))^D) [formula]
Parameter A was set to zero, pre-fit values for parameters B and D were set to 100 and 1, respectively.
In general terms: Fluorescence polarisation rises when a labelled molecule tumbles more slowly, as on binding a larger partner.

Setting [1] is: binding of Keap1 kelch domain (20 nM) to fluorescently labeled Nrf2 peptide (50 nM), read-out: IC50.
Where [2] appears, read: binding of Keap1 kelch domain (20 nM) to fluorescently labeled Nrf2 peptide (50 nM).

The structures appear in SMILES notation. Read-outs that look alike come from different tables or passages of the source.

T1 sequence (Q14145 321-609): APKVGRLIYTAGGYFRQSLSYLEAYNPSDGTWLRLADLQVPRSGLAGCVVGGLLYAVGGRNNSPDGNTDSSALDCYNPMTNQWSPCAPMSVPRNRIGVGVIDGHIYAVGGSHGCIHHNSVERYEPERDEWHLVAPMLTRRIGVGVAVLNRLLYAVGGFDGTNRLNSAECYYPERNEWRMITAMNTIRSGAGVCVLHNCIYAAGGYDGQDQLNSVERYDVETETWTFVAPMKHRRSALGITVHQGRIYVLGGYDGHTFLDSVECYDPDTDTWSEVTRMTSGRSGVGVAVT

For `Cc1nn(C)c(Cl)c1S(=O)(=O)Nc1ccc(-c2cccc(C(=O)O)c2)c2ccccc12` [Example 12, 3-[4-[(5-chloro-1,3-dimethyl-pyrazol-4-yl)sulfonylamino]-1-naphthyl]benzoic acid], the IC50 (as a rule, the concentration that inhibits the measured activity by half) under setting [1] worked out at 0.4 µM.

As to `O=C(O)c1cccc(-c2ccc(NS(=O)(=O)c3ccc(N4CCCC4=O)cc3)c3ccccc23)c1` [Example 26, 3-[4-[[4-(2-oxopyrrolidin-1-yl)phenyl]sulfonylamino]-1-naphthyl]benzoic acid], the IC50 under setting [1] is 2.5 µM.

For `Cc1cc(C)c(C)c(S(=O)(=O)Nc2ccc(-c3cccc(C(=O)O)c3F)c3ccccc23)c1C` [Example 4, 2-fluoro-3-[4-[(2,3,5,6-tetramethylphenyl)sulfonylamino]-1-naphthyl]benzoic acid], the 50% inhibitory concentration (IC50) under setting [1] turned out to be 0.2 µM. Under setting [2], `Cc1c(Cl)cc(F)cc1S(=O)(=O)Nc1ccc(-c2cccc(C(=O)O)c2)c2ccccc12` [Example 46, 3-[4-[(3-chloro-5-fluoro-2-methylphenyl)sulfonylamino]-1-naphthyl]benzoic acid] showed an IC50 of 2.1 µM. Take `Cc1nc(C)c(S(=O)(=O)Nc2ccc(-c3cccc(C(=O)O)c3)c3ccccc23)s1` [Example 24, 3-[4-[(2,4-dimethylthiazol-5-yl)sulfonylamino]-1-naphthyl]benzoic acid]: the IC50 under setting [1] came out at 4.6 µM.

`Cc1ccc(S(=O)(=O)Nc2ccc(-c3cccc(C(=O)O)c3)c3ccccc23)cc1` [Example 3, 3-[4-(p-tolylsulfonylamino)-1-naphthyl]benzoic acid]: the half-inhibitory concentration (IC50) under setting [1] is 2.1 µM. Same read-out and setting: the value for `Cc1cc(S(=O)(=O)Nc2ccc(-c3cccc(C(=O)O)c3)c3ccccc23)c(C)o1` [Example 58, 3-[4-[(2,5-dimethyl-3-furyl)sulfonylamino]-1-naphthyl]benzoic acid] was 4.6 µM.

For `O=C(O)c1ccc(F)c(-c2ccc(NS(=O)(=O)c3ccc(Cl)c(C(F)(F)F)c3)c3ccccc23)c1` [Example 75, 3-[4-[[4-chloro-3-(trifluoromethyl)phenyl]sulfonylamino]-1-naphthyl]-4-fluoro-benzoic acid], the half-inhibitory concentration (IC50) under setting [1] turned out to be 4.4 µM.

For `COc1ccc(F)c(S(=O)(=O)Nc2ccc(-c3cccc(C(=O)O)c3)c3ccccc23)c1` [Example 32, 3-[4-[(2-fluoro-5-methoxyphenyl)sulfonylamino]-1-naphthyl]benzoic acid], the concentration for half-maximal inhibition (IC50) under setting [1] is 3.3 µM. Consider `O=C(O)c1cccc(-c2ccc(NS(=O)(=O)c3ccc(Cl)cc3Cl)c3ccccc23)c1` [Example 15, 3-[4-[(2,4-dichlorophenyl)sulfonylamino]-1-naphthyl]benzoic acid], for which the IC50 under setting [2] was 1 µM.

Regarding `Cc1ccc(Cl)cc1S(=O)(=O)Nc1ccc(-c2cc(C(=O)O)ccc2F)c2ccccc12` [Example 87, 3-[4-[(5-chloro-2-methylphenyl)sulfonylamino]-1-naphthyl]-4-fluorobenzoic acid], the IC50 under setting [2] stood at 1 µM. Take `CC(=O)Nc1nc(C)c(S(=O)(=O)Nc2ccc(-c3cccc(C(=O)O)c3)c3ccccc23)s1` [Example 11, 3-[4-[(2-acetamido-4-methyl-thiazol-5-yl)sulfonylamino]-1-naphthyl]benzoic acid]: the 50% inhibitory concentration (IC50) under setting [1] worked out at 2.8 µM. On to `O=C(O)c1ccc(F)c(-c2ccc(NS(=O)(=O)c3cc(Cl)ccc3Cl)c3ccccc23)c1` [Example 76, 3-[4-[(2,5-dichlorophenyl)sulfonylamino]-1-naphthyl]-4-fluoro-benzoic acid], for which, under setting [1], the IC50 came to 2.4 µM. Regarding `O=C(O)c1cccc(-c2ccc(NS(=O)(=O)c3c(Cl)cc(C(F)(F)F)cc3Cl)c3ccccc23)c1` [Example 52, 3-[4-[[2,6-dichloro-4-(trifluoromethyl)phenyl]sulfonylamino]-1-naphthyl]benzoic acid], under setting [2], the IC50 turned out to be 1.4 µM. For `Cc1cc(S(=O)(=O)Nc2ccc(-c3cc(C(=O)O)ccc3F)c3ccccc23)c(Cl)cc1Cl` [Example 88, 3-[4-[(2,4-dichloro-5-methylphenyl)sulfonylamino]-1-naphthyl]-4-fluorobenzoic acid], the IC50 under setting [1] came to 1.3 µM. `Cc1cc(NC(=O)c2ccccc2)ccc1S(=O)(=O)Nc1ccc(-c2cccc(C(=O)O)c2)c2ccccc12` [Example 47, 3-[4-[(4-benzamido-2-methylphenyl)sulfonylamino]-1-naphthyl]benzoic acid] had an IC50 under setting [2] of 5 µM. Take `Cc1nc(-c2ccc(C(F)(F)F)cc2)sc1S(=O)(=O)Nc1ccc(-c2cc(C(=O)O)ccc2F)c2ccccc12` [Example 9, 4-fluoro-3-[4-[[4-methyl-2-[4-(trifluoromethyl)phenyl]thiazol-5-yl]sulfonylamino]-1-naphthyl]benzoic acid]: under setting [1], the half-inhibitory concentration (IC50) was 5.8 µM.

As to `Cc1cc(C)c(C)c(S(=O)(=O)Nc2ccc(-c3cc(C(=O)O)ccc3F)c3ccccc23)c1C` [Example 5, 4-fluoro-3-[4-[(2,3,5,6-tetramethylphenyl)sulfonylamino]-1-naphthyl]benzoic acid], the IC50 under setting [1] stood at 0.09 µM. With `N#Cc1ccc(S(=O)(=O)Nc2ccc(-c3cccc(C(=O)O)c3)c3ccccc23)c(Cl)c1` [Example 33, 3-[4-[(2-chloro-4-cyanophenyl)sulfonylamino]-1-naphthyl]benzoic acid], under setting [2], the IC50 was 5.2 µM. Consider `CCCCCCCCn1nc(C)c(S(=O)(=O)Nc2ccc(-c3cc(C(=O)O)ccc3F)c3ncccc23)c1C` [Example 95, 3-[5-[(3,5-dimethyl-1-octyl-pyrazol-4-yl)sulfonylamino]-8-quinolyl]-4-fluorobenzoic acid], for which the IC50 under setting [1] was determined as 2.2 µM. As to `Cc1cc(C)c(C)c(S(=O)(=O)Nc2ccc(-c3cccc(C(=O)O)c3)c3ccccc23)c1C` [Example 1, 3-[4-[(2,3,5,6-tetramethyl-phenyl)-sulfonylamino]-1-naphthyl]benzoic acid], under setting [1], the IC50 came out at 0.2 µM. Same read-out and setting: for `Cc1c(S(=O)(=O)Nc2ccc(-c3cc(C(=O)O)ccc3F)c3ncccc23)sc2ccc(Cl)cc12` [Example 93, 3-[5-[(5-chloro-3-methyl-benzothiophen-2-yl)sulfonylamino]-8-quinolyl]-4-fluoro-benzoic acid] the value was 6.5 µM. The molecule `O=C1Cc2cc(S(=O)(=O)Nc3ccc(-c4cccc(C(=O)O)c4)c4ccccc34)ccc2N1` [Example 51, [4-[(2-oxoindolin-5-yl)sulfonylamino]-1-naphthyl]benzoic acid] had a half-maximal inhibitory concentration (IC50) of 7.8 µM. For `Cc1c(S(=O)(=O)Nc2ccc(-c3cccc(C(=O)O)c3)c3ccccc23)cnn1CC(C)C` [Example 68, 3-[4-[(1-isobutyl-5-methyl-pyrazol-4-yl)sulfonylamino]-1-naphthyl]benzoic acid], the IC50 under setting [1] was determined as 2.4 µM. The same measure, in the same setting: for `Cc1ccc2c(NS(=O)(=O)c3c(C)c(C)cc(C)c3C)ccc(-c3cc(C(=O)O)ccc3F)c2n1` [Example 61, 4-fluoro-3-[2-methyl-5-[(2,3,5,6-tetramethylphenyl)sulfonylamino]-8-quinolyl]benzoic acid; 2,2,2-trifluoroacetic acid] the value was 0.5 µM. On to `O=C(O)c1ccc(F)c(-c2ccc(NS(=O)(=O)c3c(Cl)cc(C(F)(F)F)cc3Cl)c3ccccc23)c1` [Example 81, 3-[4-[[2,6-dichloro-4-(trifluoromethyl)phenyl]sulfonylamino]-1-naphthyl]-4-fluoro-benzoic acid], for which, under setting [2], the IC50 was determined as 0.7 µM.

Regarding `Cc1c(S(=O)(=O)Nc2ccc(-c3cc(C(=O)O)ccc3F)c3ccccc23)cnn1C1CCCC1` [Example 90, 3-[4-[(1-cyclopentyl-5-methyl-pyrazol-4-yl)sulfonylamino]-1-naphthyl]-4-fluorobenzoic acid], the IC50 under setting [1] came out at 1.2 µM. On the same count and under the same terms, the value for `Cc1ccc(F)c(S(=O)(=O)Nc2ccc(-c3cccc(C(=O)O)c3)c3ccccc23)c1` [Example 28, 3-[4-[(2-fluoro-5-methylphenyl)sulfonylamino]-1-naphthyl]benzoic acid] was 5.1 µM. Under setting [2], `O=C(O)c1cccc(-c2ccc(NS(=O)(=O)c3cc(Cl)c(Cl)s3)c3ccccc23)c1` [Example 19, 3-[4-[(4,5-dichloro-2-thienyl)sulfonylamino]-1-naphthyl]benzoic acid] yielded a half-inhibitory concentration (IC50) of 7 µM.

Under setting [2], `Cc1cccc(Cl)c1S(=O)(=O)Nc1ccc(-c2cccc(C(=O)O)c2)c2ccccc12` [Example 21, 3-[4-[(2-chloro-6-methylphenyl)sulfonylamino]-1-naphthyl]benzoic acid] returned a concentration for half-maximal inhibition (IC50) of 1.8 µM. Under setting [2], `O=C(O)c1cccc(-c2ccc(NS(=O)(=O)c3ccc4ncsc4c3)c3ccccc23)c1` [Example 44, 3-[4-(1,3-benzothiazol-6-ylsulfonylamino)-1-naphthyl]benzoic acid] gave a 50% inhibitory concentration (IC50) of 3.8 µM. As to `Cc1ccc2sc(S(=O)(=O)Nc3ccc(-c4cccc(C(=O)O)c4)c4ccccc34)cc2c1` [Example 25, 3-[4-[(5-methylbenzothiophen-2-yl)sulfonylamino]-1-naphthyl]benzoic acid], the IC50 under setting [1] is 3 µM.

As for `CCCCn1cc(S(=O)(=O)Nc2ccc(-c3cc(C(=O)O)ccc3F)c3ccccc23)c(C)n1` [Example 70, 3-[4-[(1-butyl-3-methyl-pyrazol-4-yl)sulfonylamino]-1-naphthyl]-4-fluorobenzoic acid], under setting [1], the IC50 worked out at 2.6 µM.
